Results reported in a melting point compilation (Tetko et al.; mined from patent text by program, amines drawn as free bases though some values may be those of a salt).

SMILES | melting point [°C]
Cc1ccc(-c2cc(NCCNc3cc(-c4ccc(C)cc4)[nH]n3)n[nH]2)cc1 | 179
CC(C)(C)c1cc(-c2nn(CC(F)(F)C(F)F)c3ncccc23)cc(C(C)(C)C)c1O | 105 to 106
CCCCCCOc1ccc2cc([C@H]3CC[C@H](CCCCCC)CC3)ccc2c1 | 48
CC1(C)CCc2c(N3CCSCC3)nc3sc4c(NCc5cccnc5)ncnc4c3c2C1 | 257 to 258
CC(=O)N[C@@H](Cc1ccccc1)C[C@H](O)[C@H](Cc1ccccc1)N(Cc1ccccc1)Cc1ccccc1 | 84 to 86
CCOC(=O)c1c(Cl)nc2ccsc2c1Cl | 73
Cc1c(-c2ccc(Cl)nc2)sc2nc(N)[nH]c(=O)c12 | 230 to 250
O=C(Nc1cccc2c1C(=O)c1c-2n[nH]c1-c1ccc(C(=O)N2CCN(c3ccccn3)CC2)s1)NN1CCOCC1 | 201 to 202
Fc1nc(Oc2ccc(CCNc3ncnc4nccnc34)cc2)c(F)c(C(F)(F)F)c1F | 103 to 108
Oc1cc2c(cc1CNc1ccccc1)OCCC2 | 135 to 137
CC(=O)NCCC1=C(C(C)C)Cc2ccc3nc(C)oc3c21 | 135 to 138
O=C([O-])C12CC[N+](Cc3ccc4c(c3)Nc3nccnc3S4)(CC1)CC2 | 229 to 230
CCCn1nc(-c2ccc(Cl)c(Cl)c2)c(-n2ccnc2)c1SC | 91 to 93
C#CCC1CC2C(CCC3(C)C(=O)CCC23)C2CCC(=O)C=C12 (stereo not drawn) | 186 to 188
O=C(NCc1ncc(C(F)(F)F)cc1Cl)c1ccc(Br)o1 | 77.8
CCOC(=O)C1=COc2cc(C(C)(C)C)c(OC(C)=O)cc2O1 | 144
CCS(=O)(=O)c1ccc(SC2SCC(OC(C)=O)C(OC(C)=O)C2OC(C)=O)cc1 (stereo not drawn) | 136 to 137
CCN(CC)c1ccc(NC(=O)N(C[C@H]2CC[C@H](CN(C(=O)Nc3ccc(N(CC)CC)cc3)C3CCCCC3)CC2)C2CCCCC2)cc1 | 212 to 217
CC(C)(C)c1cc(CCc2ccccc2NC(=O)NCCCC2CCCCC2)cc(C(C)(C)C)c1O | 166
Cc1ccc(OC2CCN(C(=O)C(=O)Nc3ccc4[nH]c(=O)oc4c3)CC2)cc1 | 203
CC(=O)NCCC1CNc2ccc3c(c21)CCCO3 (stereo not drawn) | 137 to 138

SMILES | melting point [°C]
CCOC(=O)CCCCOc1ccc(OC)c(OC)c1C=O | 105 to 107
O=c1c2cc(Cl)ccc2nc2n1CS(=O)(=O)N2 | > 300
CCOC(=O)COc1ccc(C23CC4CC(CC(C4)C2)C3)cc1 | 89 to 90
O=C(CSc1ncccn1)C12CC3CC(CC(C3)C1)C2 | 100 to 101
CC12CC(c3ccc(C=O)cc3)C3=C4CCC(=O)C=C4CCC3C1CCC2O (stereo not drawn) | 197 to 200
Cc1nc(N2CCN(Cc3ccc(F)cc3)C2=O)sc1-c1nn[nH]n1 | 145 to 149
Cn1ccc(Nc2n[nH]c3ccc(-c4ncccc4Cl)cc23)n1 | 190 to 191
CCOC(=O)C(C#N)C(=O)c1ccc[nH]1 (stereo not drawn) | 138 to 139
COc1cc(-c2c(-c3ccncc3)c(-c3ccc(F)cc3)nn2CCO)ccn1 | 168 to 169
Cc1cc2c(nc3n2CCC3)c([N+](=O)[O-])c1Br | 201 to 203
CCOc1ccc2c(c1)n(C1CCCCC1)c(=O)n2S(=O)(=O)c1ccc(C(=O)NC(C)(C)CN(C)C)cc1OC | 161
Cn1cc(-c2cnc3ccc(Br)cc3n2)cn1 | 172
CNC(=O)NC(NC(=O)C(Cl)(Cl)Cl)C(Cl)(Cl)Cl (stereo not drawn) | 209 to 210
CN(C)S(=O)(=O)c1ccc(C(N)=O)c(C(F)(F)F)c1 | 149 to 156
Cc1nc(N)sc1S(=O)(=O)N(C)CCO | 118
COc1ccc2cnc(=O)[nH]c2c1C1CCCC1 | 201 to 204
CCOC(=O)c1c(-c2ccc(F)cc2)c(-c2ccc(F)cc2)c(C=O)n1C(C)C | 92 to 94
CCN(CC)CCNc1cccc2c1C(=O)c1cccc(NCCN(CC)CC)c1C2=O | 158 to 160
CCOc1ccc([N+](=O)[O-])c(NC2CCOCC2)c1 | 117
CCC(Sc1ccc(OC)c(Cl)c1Cl)C(=O)O (stereo not drawn) | 143 to 145

Results, then the molecule that gave them:

melting point [°C] | SMILES
256 to 258 | Cc1cc(F)c2ncc(C(=O)NNc3ccc(Cl)cc3)c(O)c2c1
104 to 105 | COC(=O)NNC(=S)Cc1ccc(C)cc1
145 to 146 | O=C1C=C(O)CC(c2ccccc2)O1 (stereo not drawn)
80 to 83 | CCN1C(c2ccccc2C(=O)c2ccccc2)=N[C@@H]2CCCC[C@H]21 (relative stereo)
77 | COC1(c2cccc(OCc3ccc4ccc(F)cc4c3)c2)CC(C)OC(C)C1 (stereo not drawn)
180 | CN1CC(=O)c2c(c3ccccc3n2C)S1(=O)=O
74.5 to 76.5 | ClC(Cl)=Cc1ccc(OCc2ccccc2)cc1
256 to 258 | O=C(O)CNC(=O)c1nc2ccc(NCCCN3CCC(OC(c4ccccc4)c4ccccc4)CC3)nn2n1
106 to 109 | CC=C1OC(=O)c2c(OC)cccc21
201 | CC1=C(C(=O)c2ccc(C(=O)O)cc2)C(=O)C2C=CC=CC2C1=O (stereo not drawn)
97 to 100 | COc1cc(Sc2ccncc2)ccc1[N+](=O)[O-]
135 to 137 | N#Cn1nc(-c2ccccc2)c(=O)cc1I
157 | COc1ccc(C(=O)N(C(=O)c2ccc(OC)cc2)c2nc3ccc(N4CCOCC4)cc3c(NCc3ccccc3)c2C#N)cc1
142 to 146 | CC1(C)COC(c2ccccc2S(N)(=O)=O)=N1
226 to 228 | CC(C)NC(=O)c1cccc(I)c1C(=O)Nc1cc(C(F)(F)F)nn1-c1ccccc1Cl
258 to 260 | CC(C)(CN)c1ccc(C(=O)Nc2cn3cc(-n4ccnc4)ccc3n2)cc1

melting point [°C] | SMILES
> 260 | O=C(CN1C(=O)c2ccccc2C1=O)NNC(=O)c1ncn2c1[C@@H]1CCCN1C(=O)c1sccc1-2
162 to 164 | CC(C)C(NC(=O)OCc1ccccc1)C(=O)Nc1nncs1 (racemic)
100 to 102 | CN(C)CCNC(=O)c1cccc2cc[nH]c12
71 to 72 | C=CCOc1cc(C(=O)OCC)nc2ccccc12
54 to 56 | c1ccc(C2COc3ccccc3C2)cc1 (stereo not drawn)
210 to 212 | O=C(NC(Cc1ccccc1[N+](=O)[O-])c1ccccc1)C1CCCCC1 (stereo not drawn)
117 to 118 | CCOC(=O)C(=C(c1ccc(F)cc1)c1ccc(F)cc1)c1nnn(C)n1
95 to 98 | Clc1ccc2c3c(cccc13)-c1ccccc1-2
205 to 207 | CC(=O)OCC(=O)Nc1nc2c(Cl)cccc2s1
88 | COC(=O)/C(=C/C=C/c1ccc2ccccc2n1)OC
151 to 153 | OC1c2cc(OCc3ccc4ccccc4n3)ccc2OCC1Oc1ccccc1 (stereo not drawn)
183 to 185 | COc1ccc(COc2ccc(CSc3ccc(OCC(=O)O)c4c3CCC4)cc2)cc1
68 to 70 | Cc1nc2n(c1CCN(C)C)CCCC2OCc1ccccc1 (stereo not drawn)
174 | CCc1nc2c(C(F)(F)F)cccc2c(O)c1C(=O)O
121 to 123 | O=C1Nc2ccccc2Nc2ccccc21
65 to 66 | COc1ccc(N(C)C(C)=O)cc1C
